Measured values: patent publication US9687485B2, “Combination therapy with glutaminase inhibitors” (Calithera Biosciences, Inc., priority 2014, dated 2017)
Where two headings read alike, the source gives them in different places.

What was measured:
Type in all cases: cell-based
[1] = tested on: multiple myeloma cell lines; experiment: Co-administration, cell viability (Cell Titer Glo), multiple myeloma
Protocol: (§1) Cells were treated with a dose titration of either CB-839, an anti-cancer agent or a mixture thereof for 72 hours in growth media. At the end of the incubation, cell viability was measured using Cell Titer Glo as per manufacturer's protocol (Promega, Madison, Wis.). Cell proliferation for all compound treatments are represented as bar graphs, where luminescent output, Relative Light Units (RLU), correlates with viable cell number. Combination indices were calculated using the Calcusyn program (biosoft.com) and reported for individual mixtures of CB-839 and each agent.

[2] = tested on: renal cell carcinoma cell lines; experiment: Co-administration, cell viability (Cell Titer Glo), renal cell carcinoma
Protocol: as §1

[3] = tested on: triple negative breast cancer cell lines; experiment: Co-administration, cell viability (Cell Titer Glo), triple negative breast cancer
Protocol: as §1

[4] = tested on: renal clear cell carcinoma cells; experiment: Co-administration, cell viability, renal clear cell carcinoma (FIG. 25); details: combination with everolimus
Protocol: as §1

[5] = tested on: lung cancer cell lines; experiment: Co-administration, cell viability (Cell Titer Glo), lung cancer
Protocol: as §1

[6] = tested on: H1650 NSCLC cell lines; experiment: Co-administration, cell viability, NSCLC (FIG. 26)
Protocol: as §1

[7] = tested on: P493-6 (myc “on”) cells; experiment: Cell Proliferation Assay; details: read-out: Cell prolif P493 72 h IC50
Protocol: P493-6 (myc “on”) cells were maintained in growth media (RPMI-1640, 10% FBS, 2 mM glutamine, 100 units/ml Penicillin and 100 μg/ml streptomycin) at 37° C. with 5% CO2. For compound assay, P493-6 cells were plated in 96-well V-bottom plates on the day of compound addition in 50 μl of growth media at a cell density of 200,000 cells/ml (10,000 cells/well). Compounds were serially diluted in 100% DMSO at 200-times the final concentration. Compounds were diluted 100-fold into growth media and then 50 μl of this mixture was added to cell plates making the final concentration of DMSO 0.5%. Cells were incubated with compound for 72 hrs at 37° C. with 5% CO2 and analyzed for antiproliferative effects either by Cell Titer Glo (Promega) or FACS analysis using the Viacount (Millipore) kit on the Guava instrument.

O=C(Cc1cccc(OC(F)(F)F)c1)Nc1ccc(CCCCc2nnc(NC(=O)Cc3ccccn3)s2)nn1 [CB-839]
interaction of CB-839 with vincristine ([1]; FIG. 1, combination with vincristine, 72 hours): synergy
interaction of CB-839 with AKT inhibitor MK2206 ([1]; FIG. 2, combination with MK2206, 72 hours): strong synergy
interaction of CB-839 with mTOR inhibitor everolimus ([1]; FIG. 3, combination with everolimus, 72 hours): strong synergy
interaction of CB-839 with MEK inhibitor trametinib ([1]; FIG. 4, combination with trametinib, 72 hours): strong synergy
interaction of CB-839 with RTK inhibitor sorafenib ([1]; FIG. 5, combination with sorafenib, 72 hours): strong synergy
interaction of CB-839 with RTK inhibitor sorafenib ([2]; FIG. 17, combination with sorafenib, 72 hours): synergy
interaction of CB-839 with C-kit and pan-RTK inhibitor sunitinib ([2]; FIG. 18, combination with sunitinib, 72 hours): synergy
interaction of CB-839 with pan-RTK inhibitor pazopanib ([2]; FIG. 19, combination with pazopanib, 72 hours): synergy
interaction of CB-839 with mTOR inhibitor everolimus ([2]; FIG. 20, combination with everolimus, 72 hours): synergy
interaction of CB-839 with mTOR inhibitor temsirolimus ([2]; FIG. 21, combination with temsirolimus, 72 hours): synergy
interaction of CB-839 with MEK inhibitor trametinib ([2]; FIG. 22, combination with trametinib, 72 hours): synergy
interaction of CB-839 with AKT inhibitor MK2206 ([2]; FIG. 23, combination with MK2206, 72 hours): synergy
interaction of CB-839 with PI3K/mTOR inhibitor BEZ235 ([2]; FIG. 24, combination with BEZ235, 72 hours): therapeutic interaction
interaction of CB-839 with carboplatin ([3]; FIG. 6, combination with carboplatin, 72 hours): therapeutic interaction
interaction of CB-839 with cytidine analog gemcitabine ([3]; FIG. 7, combination with gemcitabine, 72 hours): additive effect
interaction of CB-839 with doxorubicin ([3]; FIG. 8, combination with doxorubicin, 72 hours): therapeutic interaction
interaction of CB-839 with mTOR inhibitor everolimus ([3]; FIG. 9, combination with everolimus, 72 hours): synergy
interaction of CB-839 with AKT inhibitor MK2206 ([3]; FIG. 10, combination with MK2206, 72 hours): synergy
effect of the combination of CB-839 and everolimus [4]: synergistic antiproliferative activity
interaction of CB-839 with EGFR inhibitor erlotinib ([5]; FIG. 11, combination with erlotinib, 72 hours): synergy
interaction of CB-839 with MEK inhibitor trametinib ([5]; FIG. 12, combination with trametinib, 72 hours): synergy
interaction of CB-839 with mTOR inhibitor everolimus ([5]; FIG. 13, combination with everolimus, 72 hours): synergy
interaction of CB-839 with mTOR inhibitor temsirolimus ([5]; FIG. 14, combination with temsirolimus, 72 hours): synergy
interaction of CB-839 with AKT inhibitor MK2206 ([5]; FIG. 15, combination with MK2206, 72 hours): synergy
interaction of CB-839 with PI3K/mTOR inhibitor BEZ235 ([5]; FIG. 16, combination with BEZ235, 72 hours): synergy
effect of the combination of CB-839 and erlotinib ([6]; combination with erlotinib, erlotinib-resistant model): enhances the anti-tumor effects of each individual compound

[2H]C([2H])(CCc1nnc(N)s1)C([2H])([2H])c1ccc(NC(=O)Cc2cccc(OC(F)(F)F)c2)nn1 [Compound 726]
IC50 ([7]; P493-6, 72 h): 610 nM

[2H]C([2H])(CCc1nnc(NC(=O)Cc2ccccn2)s1)C([2H])([2H])c1ccc(NC(=O)Cc2cccc(OC(F)(F)F)c2)nn1 [Compound 727]
IC50 ([7]; 72 h): 12 nM

C#Cc1cccc(Nc2ncnc3cc(OCCOC)c(OCCOC)cc23)c1 [erlotinib, reference compound]
sensitivity of the cells to erlotinib ([6]; erlotinib alone): resistant
